Assay results: US7915276B2, “Berberrubine derivatives having antifungal activities” (priority 2006, dated 2011)

Tests used:
[1] = molecular target: T1, chitin synthase 1 of Candida albicans chs2 Δ chs 3 Δ (Candida albicans, UniProt P23316); test: In vitro enzyme assay for chitin synthase 1 of Candida albicans (enzyme 1); format: biochemical; settings: relative to polyoxin D (50% inhibitory activity = value 5)
T1 construct: Crude enzyme was prepared using the Candida albicans chs2 Δ chs 3 Δ mutant; endogenous in cells; host or cells: Candida albicans chs2Δ/chs2Δ chs3Δ/chs3Δ mutant; 130,000 x g membrane pellet
T1 sequence (P23316 whole entry, stated change not applied): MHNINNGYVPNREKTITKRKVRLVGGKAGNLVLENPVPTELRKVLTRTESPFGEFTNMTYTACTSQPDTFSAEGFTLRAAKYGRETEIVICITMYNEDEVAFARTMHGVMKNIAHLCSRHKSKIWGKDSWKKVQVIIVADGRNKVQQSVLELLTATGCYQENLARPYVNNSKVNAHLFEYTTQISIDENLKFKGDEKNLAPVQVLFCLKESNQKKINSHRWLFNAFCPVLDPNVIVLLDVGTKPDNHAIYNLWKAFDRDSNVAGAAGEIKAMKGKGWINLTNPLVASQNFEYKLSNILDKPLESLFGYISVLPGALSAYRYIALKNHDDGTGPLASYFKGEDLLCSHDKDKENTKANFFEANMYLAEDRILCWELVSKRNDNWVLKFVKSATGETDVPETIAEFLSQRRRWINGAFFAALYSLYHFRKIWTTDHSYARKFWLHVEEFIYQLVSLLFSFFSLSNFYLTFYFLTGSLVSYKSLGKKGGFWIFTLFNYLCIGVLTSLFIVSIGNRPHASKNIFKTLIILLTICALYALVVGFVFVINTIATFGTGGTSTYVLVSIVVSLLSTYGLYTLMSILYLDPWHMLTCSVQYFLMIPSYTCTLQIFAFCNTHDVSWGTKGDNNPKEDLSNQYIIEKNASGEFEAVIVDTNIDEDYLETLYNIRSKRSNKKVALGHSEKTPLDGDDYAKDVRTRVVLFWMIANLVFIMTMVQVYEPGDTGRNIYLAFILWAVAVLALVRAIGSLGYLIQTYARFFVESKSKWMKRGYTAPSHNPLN
Method in brief: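 Trypsin-activated crude membrane chitin synthase 1 from C. albicans chs2Δ chs3Δ was incubated 90 min at 30 °C with 1.1 mM UDP-[14C]GlcNAc and 2 mM cobalt acetate in Tris-HCl pH 7.5. Filtered TCA precipitate was counted by scintillation; values are scores 1–8 against polyoxin D (5 = same concentration).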

[2] = molecular target: T2, chitin synthase 2 of Saccharomyces cerevisiae ECY38-38A(pAS6) (Saccharomyces cerevisiae, UniProt P14180); test: In vitro enzyme assay for chitin synthase 2 of Saccharomyces cerevisiae (enzyme 2); format: biochemical; settings: relative to polyoxin D (50% inhibitory activity = value 5)
T2 construct: made in house; host or cells: Saccharomyces cerevisiae ECY38-38A (chs1-23 chs2::LEU2 cal1/csd2) carrying plasmid pAS6, grown in galactose medium; 130,000 x g membrane pellet
T2 sequence (P14180 whole entry): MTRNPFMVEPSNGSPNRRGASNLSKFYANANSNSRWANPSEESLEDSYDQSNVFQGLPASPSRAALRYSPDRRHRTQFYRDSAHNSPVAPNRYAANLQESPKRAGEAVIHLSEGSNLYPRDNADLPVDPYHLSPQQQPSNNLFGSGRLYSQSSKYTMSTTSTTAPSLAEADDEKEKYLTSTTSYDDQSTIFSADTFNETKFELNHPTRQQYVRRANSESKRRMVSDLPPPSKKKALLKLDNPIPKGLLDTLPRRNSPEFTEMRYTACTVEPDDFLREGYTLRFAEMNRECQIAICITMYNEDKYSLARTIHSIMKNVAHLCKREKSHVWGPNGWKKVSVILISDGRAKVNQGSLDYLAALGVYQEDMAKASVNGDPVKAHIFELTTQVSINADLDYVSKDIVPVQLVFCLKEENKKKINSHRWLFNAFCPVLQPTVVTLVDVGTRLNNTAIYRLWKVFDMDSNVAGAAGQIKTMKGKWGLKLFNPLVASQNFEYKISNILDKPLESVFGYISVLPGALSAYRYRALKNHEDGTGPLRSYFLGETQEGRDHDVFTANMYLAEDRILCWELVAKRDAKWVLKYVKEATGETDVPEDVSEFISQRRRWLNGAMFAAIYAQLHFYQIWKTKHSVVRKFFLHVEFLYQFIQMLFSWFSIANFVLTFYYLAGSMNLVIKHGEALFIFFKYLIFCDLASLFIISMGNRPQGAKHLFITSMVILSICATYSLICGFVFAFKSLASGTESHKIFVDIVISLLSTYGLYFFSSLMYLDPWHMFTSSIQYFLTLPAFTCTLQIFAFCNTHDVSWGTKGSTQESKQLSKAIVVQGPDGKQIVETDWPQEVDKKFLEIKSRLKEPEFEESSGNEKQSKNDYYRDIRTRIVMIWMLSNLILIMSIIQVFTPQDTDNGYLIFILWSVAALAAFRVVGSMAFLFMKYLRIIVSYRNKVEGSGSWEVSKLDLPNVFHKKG
Method in brief: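 Values are scores: 5 means 50% inhibition at the same concentration as polyoxin D, lower scores 2- to 16-fold higher concentration, higher scores ½ to ⅛. Radiolabel from 1.1 mM UDP-[14C]-GlcNAc was incorporated into TCA-insoluble chitin over 90 min at 30 °C (pH 7.5 Tris, 2 mM Co2+). The enzyme was a trypsin-activated membrane fraction from CHS2-only S. cerevisiae ECY38-38A(pAS6).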

[3] = system: Aspergillus flavus ATCC 64025; test: In vitro antifungal activity (MIC), NCCLS method; format: cell-based; settings: 48 hours
Method in brief: (§1)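 Two-fold dilutions, final inoculum 5×10^2–2.5×10^3 cell/mL, NCCLS protocol; 48 h culture for these strains. MIC = minimum inhibitory concentration.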

[4] = system: Aspergillus fumigatus ATCC 16424; test: In vitro antifungal activity (MIC), NCCLS method; format: cell-based; settings: 48 hours
Method in brief: as §1

[5] = system: Aspergillus terreus ATCC 46941; test: In vitro antifungal activity (MIC), NCCLS method; format: cell-based; settings: 48 hours
Method in brief: as §1

[6] = system: Candida albicans A207 (clinical isolate); test: In vitro antifungal activity (MIC), NCCLS method; format: cell-based; settings: 48 hours
Method in brief: (§2)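 Broth microdilution per NCCLS: two-fold serial dilutions of test compound inoculated with fungal suspension at a final 5×10^2 to 2.5×10^3 cell/mL. Strains other than Cryptococcus neoformans were incubated 48 hours before MIC reading.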

[7] = system: Candida albicans ATCC 10231; test: In vitro antifungal activity (MIC), NCCLS method; format: cell-based; settings: 48 hours
Method in brief: (§3)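 Test samples were serially diluted two-fold, then inoculated with fungus to a final cell density of 5×10^2 to 2.5×10^3 cell/mL, following the NCCLS method. Plates were cultured for 48 hours and the minimum inhibitory concentration recorded.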

[8] = system: Candida glabrata ATCC 48435; test: In vitro antifungal activity (MIC), NCCLS method; format: cell-based; settings: Candida glabrata ATCC 48435; 48 hours
Method in brief: as §3

Candida krusei ATCC 6258 = test: In vitro antifungal activity (MIC), NCCLS method; format: cell-based; settings: 48 hours
Method in brief: as §3

[9] = system: Candida lusitaniae ATCC 42720; test: In vitro antifungal activity (MIC), NCCLS method; format: cell-based; settings: 48 hours
Method in brief: as §3

[10] = system: Candida parapsilosis ATCC 34136; test: In vitro antifungal activity (MIC), NCCLS method; format: cell-based; settings: Candida parapsilosis ATCC 34136; 48 hours
Method in brief: as §3

[11] = system: Candida tropicalis ATCC 13803; test: In vitro antifungal activity (MIC), NCCLS method; format: cell-based; settings: 48 hours
Method in brief: as §3

[12] = system: Cryptococcus neoformans ATCC 36556; test: In vitro antifungal activity (MIC), NCCLS method; format: cell-based; settings: RPMI 1640 medium, 72 hours
Method in brief: as §2

[13] = system: Mucor ramosissimus ATCC 90286; test: In vitro antifungal activity (MIC), NCCLS method; format: cell-based; settings: 48 hours
Method in brief: as §3

Acute toxicity in mice = format: in vivo, ICR mice; settings: for Acute toxicity LD50: ICR mouse, male
Description: Each compound was suspended in 1% carboxymethylcellulose (CMC), and orally and abdominally administered to 6-week-old male ICR mice. […] Then, an autopsy was performed on the mice.

human pathogenic fungi = test: Antifungal activity against human pathogenic fungi (summary statements); format: cell-based
Source text: Candida albicans ATCC 10231, Candida lusitaniae ATCC 42720, Candida krusei ATCC 6258, Candida tropicalis ATCC 13803, Candida glabrata ATCC 48435, Candida parapsilosis ATCC 34136, Cryptococcus neoformans ATCC 36556, Aspergillus fumigatus ATCC 16424, Aspergillus flavus ATCC 64025, Aspergillus terreus ATCC 46941 and Mucor ramosissimus ATCC 90286 strains for the MIC (minimum inhibitory concentration) measurement were obtained from ATCC (American Type Culture Collection) in the U.S. The Candida albicans A207(clinical isolate) strain was used by isolating it from the patients.
The determination of MIC was performed according to the NCCLS (National Committee for Clinical Laboratory Standard) method. Each test sample solution was diluted two-fold and inoculated with a fungal suspension to reach a final inoculum size of 5×10^2 to 2.5×10^3 cell/mL. The Cryptococcus neoformans strain was cultured in the RPMI 1640 medium for 72 hours. Other strains were cultured for 48 hours.

chitin synthases = test: Inhibitory activity against the chitin synthases (summary statements); format: biochemical
Source text: The inhibitory activities against the chitin synthase 1 of Candida albicans chs2 Δ chs 3 Δ (abbreviated as ‘enzyme 1’) and the chitin synthase 2 of Saccharomyces cerevisiae ECY38-38A(pAS6)(abbreviated as ‘enzyme 2’) was examined for compound Nos. 1 to 70 compound and polyoxin D, a positive control compound.
The inhibitory activity against the chitin synthase 1 prepared from Candida albicans and the chitin synthase 2 prepared from Saccharomyces cerevisiae were examined as follows. A reaction mixture containing 32 mM Tris-HCl (pH 7.5), 2 mM cobalt acetate, 1.1 mM UDP-[U-^14C]-N-acetyl-d-glucosamine (GlcNAc) (400,000 cpm/μmol), 2 μL of trypsin (0.75 mg/mL), 20 μL of each crude enzyme and 14 μL of each test sample was kept at 30° C. for 15 minutes to activate the enzyme. Then, 2 μL of trypsin inhibitor (1.5 mg/mL) was added and the mixture was kept in an ice bath for 10 minutes to deactivate trypsin. 2 μL of 0.8 M N-acetyl-d-glucosamine was added to a total volume of 50 μL and reaction was performed at 30° C. for 90 minutes. The reaction was stopped using 1 mL of 10% TCA solution and the reaction solution was filtered with a GF/C filter and dried at room temperature. After adding 3 mL of a scintillation cocktail solution, the amount of isotopes was measured using a liquid scintillation counter. Percentage inhibition against each enzyme was calculated by the following Equation 1.

| Substance | Relative activity Enzyme 1 [1] | Relative activity Enzyme 2 [2] | MIC (minimum inhibitory concentration) [3] | MIC (minimum inhibitory concentration) [4] | MIC (minimum inhibitory concentration) [5] | MIC (minimum inhibitory concentration) [6] | MIC (minimum inhibitory concentration) [7] | MIC (minimum inhibitory concentration) [8] | MIC (minimum inhibitory concentration) (Candida krusei ATCC 6258) | MIC (minimum inhibitory concentration) [9] | MIC (minimum inhibitory concentration) [10] | MIC (minimum inhibitory concentration) [11] | MIC (minimum inhibitory concentration) [12] | MIC (minimum inhibitory concentration) [13] | Acute toxicity LD50 (Acute toxicity in mice; abdominal) | Acute toxicity LD50 (Acute toxicity in mice; oral) | antifungal activities compared with amphotericin B (in words) (human pathogenic fungi) | inhibitory activities against the chitin synthases (in words) (chitin synthases) | other results |
| --- | --- | --- | --- | --- | --- | --- | --- | --- | --- | --- | --- | --- | --- | --- | --- | --- | --- | --- | --- |
| 13-(4-tert-Butylbenzyl)-9-O-butylberberrubine iodide [Compound No. 8] | 4 (Compounds having the inhibitory activity at 2-fold, 4-fold, 8-fold and 16-fold higher concentrations than that of polyoxin D were given the values of 4, 3, 2 and 1, respectively) | 7 (compounds having the inhibitory activity at ½, ¼ and ⅛ lower concentrations than that of polyoxin D were given the values of 6, 7 and 8, respectively) | 8 µg/mL | 2 µg/mL | 8 µg/mL | 0.5 µg/mL | 0.5 µg/mL | 4 µg/mL | 2 µg/mL | 1 µg/mL | 4 µg/mL | 0.25 µg/mL | 1 µg/mL | 4 µg/mL | >15 mg/kg | >1000 mg/kg | comparable to that of amphotericin B | exceptionally superior inhibitory activities | deaths (Acute toxicity in mice; mice, oral administration dosage of 1,000 mg/kg): no case of death observed; Autopsy findings (Acute toxicity in mice; mouse, in vivo): Nothing; general symptoms and body weight (Acute toxicity in mice; mouse, in vivo): no abnormalities; Autopsy findings (Acute toxicity in mice; mouse, in vivo, po): Nothing |
| 13-(4-Isopropylbenzyl)-9-O-propylberberrubine chloride [Compound No. 49] | 4 (Compounds having the inhibitory activity at 2-fold, 4-fold, 8-fold and 16-fold higher concentrations than that of polyoxin D were given the values of 4, 3, 2 and 1, respectively) | 7 (compounds having the inhibitory activity at ½, ¼ and ⅛ lower concentrations than that of polyoxin D were given the values of 6, 7 and 8, respectively) | 8 µg/mL | 4 µg/mL | 8 µg/mL | 1 µg/mL | 1 µg/mL | 4 µg/mL | 2 µg/mL | 1 µg/mL | 4 µg/mL | 0.5 µg/mL | 2 µg/mL | 4 µg/mL |  |  | comparable to that of amphotericin B | exceptionally superior inhibitory activities |  |
| 13-(4-Isopropylbenzyl)-9-O-butylberberrubine chloride [Compound No. 50] | 4 (Compounds having the inhibitory activity at 2-fold, 4-fold, 8-fold and 16-fold higher concentrations than that of polyoxin D were given the values of 4, 3, 2 and 1, respectively) | 7 (compounds having the inhibitory activity at ½, ¼ and ⅛ lower concentrations than that of polyoxin D were given the values of 6, 7 and 8, respectively) | 8 µg/mL | 2 µg/mL | 8 µg/mL | 0.5 µg/mL | 0.5 µg/mL | 4 µg/mL | 1 µg/mL | 0.5 µg/mL | 4 µg/mL | 0.25 µg/mL | 1 µg/mL | 4 µg/mL | >15 mg/kg | >1000 mg/kg | comparable to that of amphotericin B | exceptionally superior inhibitory activities |  |
